Test systems include TK-10 renal; SF-539 CNS; HT29 colon; UACC-62 melanoma; SK-MEL-2 melanoma; SF-295 CNS; EKVX NSCLC; HS 578T breast; MDA-MB-231 breast; DU-145 prostate.
Common to all, as to assay: inhibition of tumour cell growth, NCI panel, 48 h

Each structure is given as a SMILES string.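 Method: 48-hour compound exposure of cells in 96-well plates, five concentrations, linear interpolation of endpoints. TGI: concentration producing complete growth inhibition.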

`CC(=O)OC1CC2C(C)(C)OC(=O)CC(OC(C)=O)[C@]2(C)C2CCC3(C)C(=CCC3[C@H]3COC(=O)C3)[C@]12C` (some centres not stated): the TGI with TK-10 renal, in the test on SF-539 CNS, in the test on HT29 colon, with UACC-62 melanoma, with SK-MEL-2 melanoma and in the test with SF-295 CNS was over 100 µM each time. This compound also registered a TGI with EKVX NSCLC of over 100 µM.

As to `O=C(CSc1nnc(Cc2ccccc2)o1)Nc1ccc([N+](=O)[O-])cc1`, the TGI in the test on TK-10 renal, in the test with SF-539 CNS, in the test with HT29 colon, in the test with UACC-62 melanoma, in the test on SK-MEL-2 melanoma and with SF-295 CNS was over 100 µM each time.

Turning to `O=C(NC(Cc1ccc(I)cc1)C(=O)O)c1ccc(Br)cc1` (configuration not stated), the TGI is over 100 µM in the test on SF-539 CNS; over 100 µM with HT29 colon; over 100 µM in the test with UACC-62 melanoma; over 100 µM in the test on SK-MEL-2 melanoma; over 100 µM in the test on SF-295 CNS; 31 µM in the test with EKVX NSCLC.

Turning to `COC(=O)[C@H](Cc1ccccc1)NC(=O)[C@H](Cc1ccccc1)NC(=O)[C@@H]1CCCN1C(=O)N[C@H]1C2C=CC(C2)C1C(=O)N1CCC[C@H]1C(=O)N[C@@H](C)C(=O)N[C@H](C(=O)OC)C(C)C` (some centres not stated), the TGI in the test on TK-10 renal, in the test on HT29 colon, in the test with UACC-62 melanoma, in the test on SF-295 CNS, in the test with HS 578T breast and in the test on MDA-MB-231 breast was over 100 µM throughout. In addition, the TGI in the test on EKVX NSCLC and with DU-145 prostate was over 100 µM in each case.

Regarding `CNC(=O)Oc1ccc(-c2cn3cc(OC(=O)NC)ccc3n2)cc1`, the TGI with TK-10 renal, in the test on SF-539 CNS, in the test on HT29 colon, with UACC-62 melanoma, in the test on SK-MEL-2 melanoma and in the test on SF-295 CNS was over 100 µM each time. Further, the TGI in the test on MDA-MB-231 breast, in the test with EKVX NSCLC and in the test with DU-145 prostate was over 100 µM each time.

As to `O=C1OC2(OC2c2ccccc2)c2ccccc21` (configuration not stated), the TGI in the test with TK-10 renal, with SF-539 CNS, with HT29 colon, in the test with UACC-62 melanoma, in the test on SK-MEL-2 melanoma and in the test on EKVX NSCLC was over 100 µM in each case.

With `CCCCCCCCCCCCCCCCCC(=O)O[C@H](COC(=O)CCCCCCCCCCC)COC(=O)CCCCCCCCCCCCCCC`, the TGI with TK-10 renal, in the test on HT29 colon, in the test on UACC-62 melanoma and with SF-295 CNS was over 100 µM each time.

`Cc1cc(C)cc(Nc2cc(=O)[nH]c(=O)[nH]2)c1`: the TGI in the test with TK-10 renal, in the test on SF-539 CNS, in the test with HT29 colon, in the test with SF-295 CNS, in the test with HS 578T breast and in the test on MDA-MB-231 breast was over 100 µM throughout. The TGI in the test on EKVX NSCLC and in the test with DU-145 prostate was over 100 µM throughout.

With `O=c1[nH]/c(=C/c2ccc(OCc3ccccc3)cn2)c(=O)[nH]/c1=C/c1ccc(O)cc1`, the TGI in the test with TK-10 renal is 3.03 µM; in the test with SF-539 CNS, 2.09 µM; with HT29 colon, over 100 µM; in the test with UACC-62 melanoma, over 100 µM; in the test with SK-MEL-2 melanoma, over 46 µM; in the test on SF-295 CNS it was over 100 µM. Also, the figures for the TGI with HS 578T breast, in the test on MDA-MB-231 breast and with EKVX NSCLC were over 100 µM, over 100 µM and over 89.1 µM, respectively.

As to `Nn1c(CCCCCCCCc2nnc(COc3ccc(Cl)cc3)n2N)nnc1COc1ccc(Cl)cc1`, the TGI with TK-10 renal, with HT29 colon, in the test with UACC-62 melanoma, in the test on SK-MEL-2 melanoma, in the test on SF-295 CNS and in the test on MDA-MB-231 breast was over 100 µM each time. The TGI in the test with EKVX NSCLC and in the test with DU-145 prostate was over 100 µM throughout.

As for `Cc1[nH]c(=O)[nH]c(=O)c1/C=C/C(=O)O`, the TGI in the test on SF-539 CNS, in the test with HT29 colon, in the test with UACC-62 melanoma, in the test on SK-MEL-2 melanoma, with SF-295 CNS and in the test with EKVX NSCLC was over 1000 µM in each case.

With `CC1=COC(C)(C=C(C#N)C#N)CC1` (configuration not stated), the TGI with TK-10 renal was over 100 µM; in the test with SF-539 CNS, 51.1 µM; in the test with HT29 colon it was over 100 µM; with UACC-62 melanoma it was over 100 µM; with SF-295 CNS it was over 100 µM; in the test with HS 578T breast it was 51.3 µM. Moreover, the TGI in the test on MDA-MB-231 breast, in the test on EKVX NSCLC and with DU-145 prostate was over 100 µM each time.

Regarding `CCCC(C)NC1=C(NC(C)=O)C(=O)c2ccccc2C1=O` (configuration not stated), the TGI in the test on TK-10 renal, in the test with SF-539 CNS, in the test with HT29 colon, with UACC-62 melanoma, in the test on SK-MEL-2 melanoma and in the test with SF-295 CNS was over 100 µM throughout. This compound came in with a TGI in the test with EKVX NSCLC of over 100 µM.

In the case of `COC(=O)C1=C2SCc3cccc(c3)CSC3=C(C(=O)OC)SC(=C(S2)S1)S3`, the TGI in the test with TK-10 renal was over 100 µM; with UACC-62 melanoma, over 100 µM; in the test on SK-MEL-2 melanoma, over 100 µM; in the test with SF-295 CNS, over 100 µM; with MDA-MB-231 breast, 74.9 µM; in the test with DU-145 prostate, over 100 µM.

Consider `NCCSc1nc2ccccc2c(=O)n1-c1ccccc1`, for which the TGI in the test with TK-10 renal, in the test with SF-539 CNS, with HT29 colon, with UACC-62 melanoma, in the test with SK-MEL-2 melanoma and in the test on SF-295 CNS was over 100 µM each time. The TGI with MDA-MB-231 breast and in the test on EKVX NSCLC was over 100 µM throughout.

`COC(=O)C1=CC(=O)OC1(OO)c1ccccc1` (configuration not stated): the TGI with TK-10 renal, with SF-539 CNS, in the test on HT29 colon, in the test with UACC-62 melanoma, in the test on SK-MEL-2 melanoma and with SF-295 CNS was over 100 µM in each case. Also, the TGI in the test on MDA-MB-231 breast, with EKVX NSCLC and in the test with DU-145 prostate was over 100 µM each time.

Turning to `O=C(Cc1ccccc1)NN1C(=O)C(Cl)C1c1ccc(O)cc1` (configuration not stated), the TGI in the test on TK-10 renal, in the test with HT29 colon, with UACC-62 melanoma, with SK-MEL-2 melanoma, with SF-295 CNS and with EKVX NSCLC was over 100 µM each time.

The record behind these values is PubChem BioAssay (NCI).
